Experimental data from patent US7759345B2, “Antitumoral derivatives of ET-743” (priority 2001, dated 2010).

What was measured:
Assay type in all cases: cell-based
K-562 = experiment: Inhibition of cells growth by colorimetric assay (SRB), K-562; settings: SRB, 48 hours exposure; for GI50 / LC50 (50% cell killing): Homo sapiens, K562, 48 h; for GI50 / K-562 TGI: K-562; for GI50: read-out: K-562 GI50; for LC50 (50% cell killing): read-out: K-562 LC50, K-562
Experimental: (§1) 2°.—Inhibition of Cells Growth by Colorimetric Assay.
(§2) A colorimetric type of assay, using sulforhodamine B (SRB) reaction has been adapted for a quantitative measurement of cell growth and viability [following the technique described by Philip Skehan, et al. (1990), New colorimetric cytotoxicity assay for anticancer drug screening, J. Natl. Cancer Inst., 82:1107-1112]
(§3) This form of the assay employs 96 well cell culture microplates of 9 mm diameter (Faircloth, 1988; Mosmann, 1983). Most of the cell lines are obtained from American Type Culture Collection (ATCC) derived from different human cancer types.
(§4) Cells are maintained in RPMI 1640 10% FBS, supplemented with 0.1 g/l penicillin and 0.1 g/l streptomycin sulfate and then incubated at 37° C., 5% CO2 and 98% humidity. For the experiments, cells were harvested from subconfluent cultures using trypsin and resuspended in fresh medium before plating.
(§5) Cells are seeded in 96 well microtiter plates, at 5×10^3 cells per well in aliquots of 195 μl medium, and they are allowed to attach to the plate surface by growing in drug free medium for 18 hours. Afterward, samples are added in aliquots of 5 μl in a ranging from 10 to 10^−8 μg/ml, dissolved in DMSO/EtOH/PBS (0.5:0.5:99). After 48 hours exposure, the antitumor effect are measured by the SRB methodology: cells are fixed by adding 50 μl of cold 50% (wt/vol) trichloroacetic acid (TCA) and incubating for 60 minutes at 4° C. Plates are washed with deionized water and dried. One hundred μl of SRB solution (0.4% wt/vol in 1% acetic acid) is added to each microtiter well and incubated for 10 minutes at room temperature. Unbound SRB is removed by washing with 1% acetic acid. Plates are air dried and bound stain is solubilized with Tris buffer. Optical densities are read on a automated spectrophotometric plate reader at a single wavelength of 490 nm.
(§6) The values for mean+/−SD of data from triplicate wells are calculated. Some parameters for cellular responses can be calculated: GI=growth inhibition, TGI=total growth inhibition (cytostatic effect) and LC=cell killing (cytotoxic effect).
(§7) Obtained results may predict the usefulness of a certain drug as a potential cancer treatment. For this technique, compounds which show GI50 values smaller than 10 μg/ml are selected to continue with further studies. GI50's data allow to predict that not only could a drug be cystostatic, but also it could have a potential in terms of tumor reduction.

A-549 = experiment: Inhibition of cells growth by colorimetric assay (SRB), A-549; settings: SRB, 48 hours exposure; for GI50 / LC50 (concentration for 50% cell killing): Homo sapiens, A549, 48 h; for A-549 TGI / GI50: A-549; for GI50: read-out: A-549 GI50; for LC50 (concentration for 50% cell killing): read-out: A-549 LC50, A-549
Summary of the method: (§8)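 Growth inhibition is measured by sulforhodamine B staining of TCA-fixed cells after 48 h of compound exposure across 10 to 10^−8 μg/ml. Cells are seeded at 5×10^3 per well and grown drug-free for 18 h beforehand; absorbance at 490 nm yields GI, TGI and LC values.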

SK-MEL-28 = experiment: Inhibition of cells growth by colorimetric assay (SRB), SK-MEL-28; settings: SRB, 48 hours exposure; for GI50 / CC50: Homo sapiens, SK-MEL-28, 48 h; for GI50 / MEL-28 TGI: MEL-28; for GI50: read-out: MEL-28 GI50; for CC50: read-out: MEL-28 LC50, MEL-28
Experimental: as §1, §2, §3, §4, §5, §6, §7

HT-29 = experiment: Inhibition of cells growth by colorimetric assay (SRB), HT-29; settings: SRB, 48 hours exposure; for GI50 / LC50 (concentration for 50% cell killing): Homo sapiens, HT-29, 48 h; for HT-29 TGI / GI50: HT-29; for GI50: read-out: HT-29 GI50; for LC50 (concentration for 50% cell killing): read-out: HT-29 LC50, HT-29
Summary of the method: as §8

LoVo = experiment: Inhibition of cells growth by colorimetric assay (SRB), LoVo; settings: SRB, 48 hours exposure; for GI50 / LC50 (concentration for 50% cell killing): Homo sapiens, LoVo, 48 h; for GI50 / LOVO TGI: LOVO; for GI50: read-out: LOVO GI50; for LC50 (concentration for 50% cell killing): read-out: LOVO LC50, LOVO
Experimental: as §1, §2, §3, §4, §5, §6, §7

LoVo-Dox = experiment: Inhibition of cells growth by colorimetric assay (SRB), LoVo-Dox; settings: SRB, 48 hours exposure; for GI50 / CC50: Homo sapiens, 48 h; for GI50 / LOVO-DOX TGI: LOVO-DOX; for GI50: read-out: LOVO-DOX GI50; for CC50: read-out: LOVO-DOX LC50, LOVO-DOX
Experimental: as §1, §2, §3, §4, §5, §6, §7

DU-145 = experiment: Inhibition of cells growth by colorimetric assay (SRB), DU-145; settings: SRB, 48 hours exposure; for GI50 / CC50: Homo sapiens, DU-145, 48 h; for DU-145 TGI / GI50: DU-145; for GI50: read-out: DU-145 GI50; for CC50: read-out: DU-145 LC50, DU-145
Experimental: as §1, §2, §3, §4, §5, §6, §7

LNCaP = experiment: Inhibition of cells growth by colorimetric assay (SRB), LNCaP; settings: SRB, 48 hours exposure; for GI50 / CC50: Homo sapiens, LNCaP, 48 h; for GI50: read-out: LNCAP GI50, LNCAP; for CC50: read-out: LNCAP LC50, LNCAP
Experimental: as §1, §2, §3, §4, §5, §6, §7

SK-BR-3 = experiment: Inhibition of cells growth by colorimetric assay (SRB), SK-BR-3; settings: SRB, 48 hours exposure; for GI50 / CC50: Homo sapiens, SK-BR-3, 48 h; for GI50 / SK-BR3 TGI: SK-BR3; for GI50: read-out: SK-BR3 GI50; for CC50: read-out: SK-BR3 LC50, SK-BR3
Experimental: as §1, §2, §3, §4, §5, §6, §7

IGROV-1 = experiment: Inhibition of cells growth by colorimetric assay (SRB), IGROV-1; settings: SRB, 48 hours exposure; for GI50 / CC50: Homo sapiens, IGROV-1, 48 h; for GI50 / IGROV TGI: IGROV; for GI50: read-out: IGROV GI50; for CC50: read-out: IGROV LC50, IGROV
Experimental: as §1, §2, §3, §4, §5, §6, §7

IGROV-ET = experiment: Inhibition of cells growth by colorimetric assay (SRB), IGROV-ET; settings: SRB, 48 hours exposure; for GI50 / CC50: Homo sapiens, 48 h; for GI50 / IGROV-ET TGI: IGROV-ET; for GI50: read-out: IGROV-ET GI50; for CC50: read-out: IGROV-ET LC50, IGROV-ET
Experimental: as §1, §2, §3, §4, §5, §6, §7

SK-OV-3 = experiment: Inhibition of cells growth by colorimetric assay (SRB), SK-OV-3; settings: SRB, 48 hours exposure; for GI50 / LC50: Homo sapiens, SK-OV-3, 48 h; for GI50 / SK-OV3 TGI: SK-OV3; for GI50: read-out: SK-OV3 GI50; for LC50: read-out: SK-OV3 LC50, SK-OV3
Experimental: as §1, §2, §3, §4, §5, §6, §7

PANC-1 = experiment: Inhibition of cells growth by colorimetric assay (SRB), PANC-1; settings: SRB, 48 hours exposure; for GI50 / LC50 (concentration for 50% net cell kill): Homo sapiens, PANC-1, 48 h; for GI50 / PANC-1 TGI: PANC-1; for GI50: read-out: PANC-1 GI50; for LC50 (concentration for 50% net cell kill): read-out: PANC-1 LC50, PANC-1
Experimental: as §1, §2, §3, §4, §5, §6, §7

HMEC1 = experiment: Inhibition of cells growth by colorimetric assay (SRB), HMEC1; settings: SRB, 48 hours exposure; for GI50 / LC50: Homo sapiens, HMEC-1, 48 h; for HMEC-1 TGI / GI50: HMEC-1; for GI50: read-out: HMEC-1 GI50; for LC50: read-out: HMEC-1 LC50, HMEC-1
Experimental: as §1, §2, §3, §4, §5, §6, §7

## C=COC(=O)N1CCc2cc(O)c(OC)cc2[C@@]12CS[C@@H]1c3c(OC(C)=O)c(C)c4c(c3[C@H](COC2=O)N2C1[C@H]1c3c(cc(C)c(OC)c3O)C[C@@H]([C@@H]2O)N1C)OCO4 (stereo partly drawn) [Compound 95]
K-562
  GI50: 15.3 nM
  LC50 (50% cell killing): 2220 nM
  K-562 TGI: 5.30E-08
A-549
  A-549 TGI: 5.55E-08
  GI50: 26.8 nM
  LC50 (concentration for 50% cell killing): 147 nM
SK-MEL-28
  GI50: 25.2 nM
  CC50: 83.2 nM
  MEL-28 TGI: 4.58E-08
HT-29
  HT-29 TGI: 1.27E-07
  GI50: 40.4 nM
  LC50 (concentration for 50% cell killing): 12000 nM
LoVo
  GI50: 26.2 nM
  LC50 (concentration for 50% cell killing): 111 nM
  LOVO TGI: 5.40E-08
LoVo-Dox
  GI50: 240 nM
  CC50: 12000 nM
  LOVO-DOX TGI: 8.68E-07
DU-145
  DU-145 TGI: 8.92E-08
  GI50: 37.6 nM
  CC50: 1010 nM
LNCaP
  GI50: 17.7 nM
  CC50: 66 nM
  LNCAP TGI: 3.41E-08
SK-BR-3
  GI50: 29.8 nM
  CC50: 522 nM
  SK-BR3 TGI: 7.62E-08
IGROV-1
  GI50: 28 nM
  CC50: 1090 nM
  IGROV TGI: 6.67E-08
IGROV-ET
  GI50: 50.5 nM
  CC50: 12000 nM
  IGROV-ET TGI: 1.16E-07
SK-OV-3
  GI50: 28.1 nM
  LC50: 368 nM
  SK-OV3 TGI: 6.59E-08
PANC-1
  GI50: 38.8 nM
  LC50 (concentration for 50% net cell kill): 1090 nM
  PANC-1 TGI: 1.08E-07
HMEC1
  HMEC-1 TGI: 2.80E-08
  GI50: 9.36 nM
  LC50: 75.6 nM

## C=COC(=O)Oc1cc2c(cc1OC)[C@@]1(CS[C@@H]3c4c(OC(C)=O)c(C)c5c(c4[C@H](COC1=O)N1C3[C@H]3c4c(cc(C)c(OC)c4O)C[C@@H]([C@@H]1O)N3C)OCO5)N(C(=O)OC=C)CC2 (stereo partly drawn) [Compound 100]
K-562
  GI50: 36.4 nM
  LC50 (50% cell killing): 106 nM
  K-562 TGI: 6.20E-08
A-549
  A-549 TGI: 6.20E-08
  GI50: 29.8 nM
  LC50 (concentration for 50% cell killing): 112 nM
SK-MEL-28
  GI50: 26.5 nM
  CC50: 95.9 nM
  MEL-28 TGI: 5.04E-08
HT-29
  HT-29 TGI: 8.07E-08
  GI50: 35 nM
  LC50 (concentration for 50% cell killing): 11100 nM
LoVo
  GI50: 24.4 nM
  LC50 (concentration for 50% cell killing): 82.3 nM
  LOVO TGI: 4.48E-08
LoVo-Dox
  GI50: 392 nM
  CC50: 11100 nM
  LOVO-DOX TGI: 2.73E-06
DU-145
  DU-145 TGI: 1.03E-07
  GI50: 43.1 nM
  CC50: 8320 nM
LNCaP
  GI50: 21.5 nM
  CC50: 66.5 nM
  LNCAP TGI: 3.79E-08
SK-BR-3
  GI50: 40.5 nM
  CC50: 1720 nM
  SK-BR3 TGI: 9.87E-08
IGROV-1
  GI50: 35.1 nM
  CC50: 915 nM
  IGROV TGI: 6.54E-08
IGROV-ET
  GI50: 63.2 nM
  CC50: 11100 nM
  IGROV-ET TGI: 7.41E-07
SK-OV-3
  GI50: 28.2 nM
  LC50: 111 nM
  SK-OV3 TGI: 5.74E-08
PANC-1
  GI50: 41.4 nM
  LC50 (concentration for 50% net cell kill): 8320 nM
  PANC-1 TGI: 1.14E-08
HMEC1
  HMEC-1 TGI: 5.14E-08
  GI50: 27.5 nM
  LC50: 96.1 nM
